Measurements as given in patent US20260263448A1, “CONTROLLED RELEASE INJECTABLE CARIPRAZINE FORMULATION” (Richter Gedeon Nyrt., priority 2021, published 2026).
≈ marks a conversion by molar mass, not a printed value. Where a name gives a salt, the structure may show the parent alone. Read-outs that look alike come from different tables or passages of the source.

Experiment: Solubility at different pH values (37° C.)
Format: physicochemical
Settings: for solubility: aqueous buffer, read-out: Solubility (average, mg/ml); for Solubility in the pH-range of human muscle and subcutaneous tissues: pH 6.8-7.5

Row | solubility (pH = 3, 37° C.) [mg/mL] | solubility (pH = 4.4, 37° C.) [mg/mL] | solubility (pH = 6.8, 37° C.) [mg/mL] | Solubility in the pH-range of human muscle and subcutaneous tissues | Solubility category (USP) (pH = 3, 37° C.) | Solubility category (USP) (pH = 4.4, 37° C.) | Solubility category (USP) (pH = 6.8, 37° C.) | Solubility (average, mg/ml) (pH = 7.4, 37° C.) | Solubility category (USP) (pH = 7.4, 37° C.) | solubility (pH = 4.5, 37° C.) [mg/mL] | solubility (pH = 5.5, 37° C.) [mg/mL] | solubility (pH = 7.5, 37° C.) [mg/mL] | Solubility category (USP) (pH = 4.5, 37° C.) | Solubility category (USP) (pH = 5.5, 37° C.) | Solubility (average, mg/ml) (pH = 6.8, 37° C.) [mg/mL] | Solubility category (USP) (pH = 7.5, 37° C.) | SMILES
1 | 0.204 (≈ 477 µM) | 0.357 (≈ 835 µM) | 0.0007 (≈ 1.64 µM) | practically insoluble | Very slightly soluble | Very slightly soluble | Practically insoluble | not detectable | Practically insoluble |  |  |  |  |  |  |  | CN(C)C(=O)N[C@H]1CC[C@H](CCN2CCN(c3cccc(Cl)c3Cl)CC2)CC1 [Cariprazine base, trans-N-{4-[2-[4-(2,3-dichlorophenyl)-piperazin-1-yl]-ethyl]-cyclohexyl}-N′,N′-dimethylurea]
2 | 6 |  |  | practically insoluble | Slightly soluble |  | Practically insoluble |  |  | 13.8 | 0.27 | 0.001 | Sparingly soluble | Very slightly soluble | 0.005 | Practically insoluble | CN(C)C(=O)N[C@H]1CC[C@H](CCN2CCN(c3cccc(Cl)c3Cl)CC2)CC1 [Cariprazine hydrochloride]
